The record followed here is ChEMBL document CHEMBL1201862, “PubChem BioAssay data set” (2004).

Test in all cases: inhibition of tumour cell growth, NCI panel, 48 h
Assay [1] relates to 786-0.
Assay [2] deals with ACHN.
The subject of assay [3] is CCRF-CEM.
Assay [4] has as its system HCT-116.
The test system of assay [5] is HL-60.
Assay [6] relates to HOP-92.
Assay [7] relates to IGROV-1.
In assay [8] the test system is K562.
Assay [9] relates to M14.
The test system of assay [10] is MOLT-4.
For assay [11], the system named is Malme-3M.
For assay [12], the system named is NCI-H23.
The subject of assay [13] is SF-295.
Assay [14] concerns SNB-75.
Assay [15] relates to UACC-62.

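Method: 48-hour compound exposure of cells in 96-well plates, five concentrations, linear interpolation of endpoints. Here, GI50 denotes the concentration required for 50% inhibition of growth.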 Active and inactive are the calls of the source. Rule as the data show it: active = GI50 up to about 1.1 µM and inactive = higher.

On to `COP(=O)(OC)/C(=N\Nc1ccc([N+](=O)[O-])cc1)NCc1ccccc1`, for which the GI50 is 34.3 µM (inactive) in [1]; 28 µM (inactive) in assay [2]; 20.6 µM (inactive) in assay [3]; 21 µM (inactive) in assay [4]; 21.2 µM (inactive) in assay [5]; 18.8 µM (inactive) in [6]. Moreover, the GI50 in assay [7] is 30.8 µM (inactive); in assay [8], 27.5 µM (inactive); in [9], 21.4 µM (inactive); in assay [10], 25.8 µM (inactive); in assay [11], 38.5 µM (inactive); in assay [12], 18.9 µM (inactive). Besides, the values for the GI50 in [13], in assay [14] and in [15] were 25.8 µM (inactive), 11.2 µM (inactive) and 28 µM (inactive), respectively.

In the case of `C=CCNC(=O)/C=C\C(=O)O`, the GI50 in assay [1], in assay [2], in assay [3], in assay [4], in [5] and in assay [6] was > 100 µM (inactive) in each case. For the same compound, the GI50 in assay [7], in [8], in [9], in assay [10], in assay [11] and in assay [12] was > 100 µM (inactive) in each case. For the same compound, the GI50 in [13], in assay [14] and in [15] was > 100 µM (inactive) throughout.

Take `CCc1nc2ccccc2c(=O)n1/N=C(\N=N\c1ccc(Cl)cc1)c1ccccc1`: the GI50 in assay [1] was 23.1 µM (inactive); in assay [2] it was 31.8 µM (inactive); in assay [3], 65.8 µM (inactive); in assay [4] it was 17.3 µM (inactive); in [5], 42.4 µM (inactive); in [6] it was 13.9 µM (inactive). Besides, the GI50 was 34 µM (inactive) in [7]; > 10 µM (inactive) in assay [8]; 34.2 µM (inactive) in assay [9]; 28.1 µM (inactive) in assay [10]; 38.6 µM (inactive) in assay [11]; > 100 µM (inactive) in assay [12]. The GI50 in assay [13] is 25 µM (inactive); in assay [14], 14.6 µM (inactive); in [15] it was 30.8 µM (inactive).

With `CC1CC(C)C2OC2(C)C[C@H](C)C(=O)NC(C)C(=O)N(C)[C@H](Cc2c(Br)[nH]c3ccccc23)C(=O)N[C@@H](c2ccc(O)cc2)CC(=O)O1` (stereo not given in full), the GI50 in assay [1] was 1.43 µM (inactive); in assay [2] it was 2.16 µM (inactive); in assay [3], 0.0417 µM (active); in assay [4], 0.0396 µM (active); in [5], 0.0723 µM (active); in assay [6] it was 0.352 µM (active). In addition, the GI50 in assay [7] is 0.272 µM (active); in assay [8], 0.703 µM (active); in assay [9], 0.729 µM (active); in assay [10], 1.34 µM (inactive); in assay [11], 0.527 µM (active); in assay [12], 0.902 µM (active). The GI50 in assay [13] was 1.22 µM (inactive); in assay [14], 0.142 µM (active); in [15] it was 2.5 µM (inactive).

As to `CC(=O)O[C@H]1C(=O)[C@@]2(C)C(C(OC(=O)c3ccccc3)[C@]3(O)CC(OC(=O)C(O)C(NC(=O)c4ccc(C(F)(F)F)cc4)c4ccccc4)C(C)=C1C3(C)C)[C@]1(OC(C)=O)CO[C@@H]1C[C@@H]2O` (stereo not given in full), the GI50 is 0.64 µM (active) in [1]; 1.9 µM (inactive) in assay [2]; 0.175 µM (active) in assay [3]; 0.05 µM (active) in [4]; 0.0951 µM (active) in assay [5]; 2.13 µM (inactive) in assay [6]. The GI50 is 0.183 µM (active) in assay [7]; 0.108 µM (active) in [8]; 0.0682 µM (active) in assay [9]; 0.0324 µM (active) in assay [10]; 0.109 µM (active) in assay [11]; 0.136 µM (active) in assay [12]. Also, the GI50 in assay [13] is 0.239 µM (active); in assay [14] it was 0.00375 µM (active); in assay [15] it was 0.0723 µM (active).
